Test results taken from US20190271703A1, “BIOMARKERS AND TREATMENTS FOR METASTATIC CANCER” (DUKE UNIVERSITY, priority 2016, published 2019).

System: Pro-N-cadherin-positive and pro-N-cadherin-negative SUM159 sorted cells
Test: Clonogenic assay on pro-N-cadherin-sorted cells
Format: cell-based
Settings: docetaxel 50, 75, 100, 150 nM for 48 h; pro-N-cadherin positive vs negative population
Description: Pro-N-cadherin-positive and pro-N-cadherin-negative SUM159 sorted cells were exposed to the indicated docetaxel concentrations and surviving fraction was determined in a clonogenic assay. Mean# colonies from three wells (+/−SEM) was determined for each cell population.
Pro-N-cadherin-positive and Pro-N-cadherin-negative populations were sorted from untreated SUM159 cells, seeded into 6 well plates ([…]) at varying cell densities, and incubated at 37° C., 5% C02 overnight. The next day, culture medium was removed and treatments were added [no treatment, Docetaxel (50 nM, 75 nM, 100 nM and 150 nM]. After 48 h, treatments were removed, cells were washed with HBSS, and fresh culture medium (lacking drug) was added. Every three days, culture medium was changed and plates were examined for colony formation. To stain colonies, plates were fixed in 10% Acetone/10% Methanol solution for 10 min. Colonies were stained with 2% Crystal Violet for 30 minutes. The plates are then washed with water and allowed to air dry. Plates were imaged on GelCount and colonies were counted with Image J.

CC(=O)O[C@@]12CO[C@@H]1C[C@H](O)[C@@]1(C)C(=O)[C@H](O)C3=C(C)[C@@H](OC(=O)[C@H](O)[C@@H](NC(=O)OC(C)(C)C)c4ccccc4)C[C@@](O)([C@@H](OC(=O)c4ccccc4)[C@H]21)C3(C)C [docetaxel]
surviving fraction (relative resistance of sorted populations): significantly more resistant
